target: Human complement C1s enzyme (Homo sapiens (Human), UniProt P09871); test: Human C1s enzyme assay; type: biochemical; conditions: Human C1s enzyme assay of Example 3; read-out: IC50 (Stars)
Procedure, shortened: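 Purified serum-derived human C1s (1.16 nM final) preincubated 5 min at room temperature with compound in 50 mM Tris, 1 M NaCl, pH 7.5. Z-L-Lys-SBzl thioester substrate and DTNB added (100 μM each, final); A405 read every 30 s for 30 min. IC50 from nonlinear regression of reaction rates against compound concentration.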

Human complement C1s enzyme, sequence (P09871 438-688 limits assumed): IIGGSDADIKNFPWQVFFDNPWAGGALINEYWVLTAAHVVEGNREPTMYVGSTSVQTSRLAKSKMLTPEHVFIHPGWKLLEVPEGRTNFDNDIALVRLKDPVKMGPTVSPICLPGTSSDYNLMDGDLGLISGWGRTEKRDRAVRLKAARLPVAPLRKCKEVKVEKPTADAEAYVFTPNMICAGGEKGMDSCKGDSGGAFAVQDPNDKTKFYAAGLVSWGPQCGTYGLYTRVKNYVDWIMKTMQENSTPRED
Human complement C1s enzyme, sequence (P09871 16-437 partner limits assumed): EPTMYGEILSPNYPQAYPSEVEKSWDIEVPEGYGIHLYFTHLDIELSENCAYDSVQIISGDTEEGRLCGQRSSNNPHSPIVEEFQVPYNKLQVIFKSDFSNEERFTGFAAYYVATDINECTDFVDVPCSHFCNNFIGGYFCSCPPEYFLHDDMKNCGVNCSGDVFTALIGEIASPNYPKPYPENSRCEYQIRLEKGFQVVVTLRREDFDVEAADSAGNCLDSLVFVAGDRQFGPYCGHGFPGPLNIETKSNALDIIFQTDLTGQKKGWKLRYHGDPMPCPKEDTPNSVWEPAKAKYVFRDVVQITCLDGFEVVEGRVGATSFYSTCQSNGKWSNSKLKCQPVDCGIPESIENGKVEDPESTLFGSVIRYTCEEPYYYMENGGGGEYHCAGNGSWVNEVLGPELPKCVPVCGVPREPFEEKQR

SMILES | IC50
C[C@@H](NC(=O)[C@@H]1C[C@]2(CO)C[C@@H]2N1C(=O)CNC(=O)c1ccc(Oc2ccc(F)cc2)cc1)c1ccc(C(=N)N)s1 [Compound 41, (1S,3S,5R)—N—((R)-1-(5-carbamimidoylthiophen-2-yl)ethyl)-2-((4-(4-fluorophenoxy)benzoyl)glycyl)-5-(hydroxymethyl)-2-azabicyclo[3.1.0]hexane-3-carboxamide] | < 100 nM
C[C@@H](NC(=O)[C@@H]1CC2(CN1C(=O)CNC(=O)c1ccc3c(c1)-c1ccccc1C3(F)F)OCCO2)c1cc(-c2cocn2)cs1 [Compound 129, (8S)-7-{2-[(9,9-difluorofluoren-3-yl)formamido]acetyl}-N-[(1R)-1-[4-(1,3-oxazol-4-yl)thiophen-2-yl]ethyl]-1,4-dioxa-7-azaspiro[4.4]nonane-8-carboxamide] | > 1000 nM
N=C(N)c1csc(CNC(=O)[C@@H]2CC3(CN2C(=O)CNC(=O)c2cccc(-c4ccccc4)n2)OCCO3)c1 [Compound 146, (S)—N-((4-carbamimidoylthiophen-2-yl)methyl)-7-((6-phenylpicolinoyl)glycyl)-1,4-dioxa-7-azaspiro[4.4]nonane-8-carboxamide] | < 100 nM
CS(=O)(=O)c1ccc(-c2ccc(C(=O)NCC(=O)N3CC4(C[C@H]3C(=O)NCc3cc(C(=N)N)cs3)OCCO4)cc2)cc1 [Compound 183, (S)—N-((4-carbamimidoylthiophen-2-yl)methyl)-7-((4′-(methylsulfonyl)-[1,1′-biphenyl]-4-carbonyl)glycyl)-1,4-dioxa-7-azaspiro[4.4]nonane-8-carboxamide] | < 100 nM
C[C@@H](NC(=O)[C@@H]1CC2(CN1C(=O)CNC(=O)c1ccc(-c3ccc(F)cc3)cn1)OCCO2)c1cc(C(=N)N)cs1 [Compound 163, (S)—N—((R)-1-(4-carbamimidoylthiophen-2-yl)ethyl)-7-((5-(4-fluorophenyl)picolinoyl)glycyl)-1,4-dioxa-7-azaspiro[4.4]nonane-8-carboxamide] | < 100 nM
C[C@@H](NC(=O)[C@@H]1CC2(CN1C(=O)CNC(=O)c1ccc(-c3ccccc3)cc1)OCCO2)c1cc(C(=N)N)cs1 [Compound 90, (S)-7-(([1,1′-biphenyl]-4-carbonyl)glycyl)-N—((R)-1-(4-carbamimidoylthiophen-2-yl)ethyl)-1,4-dioxa-7-azaspiro[4.4]nonane-8-carboxamide] | < 100 nM
C[C@@H](NC(=O)[C@@H]1CC2(CN1C(=O)CNC(=O)c1ccc(-c3ccc(F)cc3F)cc1)OCCO2)c1cc(C(=N)N)cs1 [Compound 158, (S)—N—((R)-1-(4-carbamimidoylthiophen-2-yl)ethyl)-7-((2′,4′-difluoro-[1,1′-biphenyl]-4-carbonyl)glycyl)-1,4-dioxa-7-azaspiro[4.4]nonane-8-carboxamide] | < 100 nM
C[C@@H](NC(=O)[C@@H]1C[C@@H](OC(F)F)CN1C(=O)CNC(=O)c1ccc(Oc2ccc(Cl)cc2)cc1)c1cc(C(=N)N)cs1 [Compound 43, (2S,4R)—N—((R)-1-(4-carbamimidoylthiophen-2-yl)ethyl)-1-((4-(4-chlorophenoxy)benzoyl)glycyl)-4-(difluoromethoxy)pyrrolidine-2-carboxamide] | < 100 nM
N=C(N)c1csc(CNC(=O)[C@@H]2CC3(CN2C(=O)CNC(=O)c2ccc(-c4ccsc4)cc2)OCCO3)c1 [Compound 165, (S)-N-((4-carbamimidoylthiophen-2-yl)methyl)-7-((4-(thiophen-3-yl)benzoyl)glycyl)-1,4-dioxa-7-azaspiro[4.4]nonane-8-carboxamide] | < 100 nM
N=C(N)c1csc(CNC(=O)[C@@H]2CC3(CN2C(=O)CNC(=O)c2ccc(-c4cc(F)ccc4F)cc2)OCCO3)c1 [Compound 188, (S)—N-((4-carbamimidoylthiophen-2-yl)methyl)-7-((2′,5′-difluoro-[1,1′-biphenyl]-4-carbonyl)glycyl)-1,4-dioxa-7-azaspiro[4.4]nonane-8-carboxamide] | < 100 nM
CO[C@@H]1C[C@@H](C(=O)N[C@H](C)c2cc(C(=N)N)cs2)N(C(=O)CNC(=O)c2ccc(Oc3ccc(F)cc3)cc2)C1 [Compound 70, (2S,4R)—N—((R)-1-(4-carbamimidoylthiophen-2-yl)ethyl)-1-((4-(4-fluorophenoxy)benzoyl)glycyl)-4-methoxypyrrolidine-2-carboxamide] | < 100 nM
N=C(N)c1csc(CNC(=O)[C@@H]2CC3(CN2C(=O)CNC(=O)c2ccc4c(c2)-c2ccccc2C4=O)OCCO3)c1 [Compound 88, (S)—N-((4-carbamimidoylthiophen-2-yl)methyl)-7-((9-oxo-9H-fluorene-3-carbonyl)glycyl)-1,4-dioxa-7-azaspiro[4.4]nonane-8-carboxamide] | < 100 nM
C[C@@H](NC(=O)[C@@H]1C[C@]2(C)C[C@@H]2N1C(=O)CNC(=O)c1ccc2c(c1)-c1ccccc1C2(F)F)c1cc(C(=N)N)cs1 [Compound 4, (1S,3S,5S)—N—((R)-1-(4-carbamimidoylthiophen-2-yl)ethyl)-2-((9,9-difluoro-9H-fluorene-3-carbonyl)glycyl)-5-methyl-2-azabicyclo[3.1.0]hexane-3-carboxamide] | < 100 nM
COC[C@@]12C[C@@H]1N(C(=O)CNC(=O)c1ccc3c(c1)-c1ccccc1C3(F)F)[C@H](C(=O)N[C@H](C)c1cc(C(=N)N)cs1)C2 [Compound 72, (1S,3S,5R)—N—((R)-1-(4-carbamimidoylthiophen-2-yl)ethyl)-2-((9,9-difluoro-9H-fluorene-3-carbonyl)glycyl)-5-(methoxymethyl)-2-azabicyclo[3.1.0]hexane-3-carboxamide] | < 100 nM

same assay, conditions: Human complement C1s enzyme 1.16 nM, substrate Z-L-Lys-SBzl 100 μM, assay of Example 3; read-out: IC50 (Stars)

SMILES | IC50
Cc1cc(-c2ccc(C(=O)NCC(=O)N3CC4(C[C@H]3C(=O)NCc3cc(C(=N)N)cs3)OCCO4)cc2)ccc1F [Compound 199, (S)—N-((4-carbamimidoylthiophen-2-yl)methyl)-7-((4′-fluoro-3′-methyl-[1,1′-biphenyl]-4-carbonyl)glycyl)-1,4-dioxa-7-azaspiro[4.4]nonane-8-carboxamide] | < 100 nM
COC[C@@H]1C[C@@H](C(=O)N[C@H](C)c2cc(C(=N)N)cs2)N(C(=O)CNC(=O)c2ccc3oc4ccccc4c3c2)C1 (relative stereo) [Compound 295, (2S,4R*)—N—((R)-1-(4-carbamimidoylthiophen-2-yl)ethyl)-1-((dibenzo[b,d]furan-2-carbonyl)glycyl)-4-(methoxymethyl)pyrrolidine-2-carboxamide] | < 100 nM
C[C@@H](NC(=O)[C@@H]1CC2(CN1C(=O)CNC(=O)c1ccc3c(c1)[nH]c1ccccc13)OCCO2)c1cc(C(=N)N)cs1 [Compound 374, (S)-7-((9H-carbazole-2-carbonyl)glycyl)-N—((R)-1-(4-carbamimidoylthiophen-2-yl)ethyl)-1,4-dioxa-7-azaspiro[4.4]nonane-8-carboxamide] | < 100 nM
C[C@@H](NC(=O)[C@@H]1CC2(CN1C(=O)CNC(=O)c1ccc(O)cc1)OCCO2)c1cc(C(=N)N)cs1 [Compound 272, (S)—N—((R)-1-(4-carbamimidoylthiophen-2-yl)ethyl)-7-((4-hydroxybenzoyl)glycyl)-1,4-dioxa-7-azaspiro[4.4]nonane-8-carboxamide] | < 100 nM
C[C@@H](NC(=O)[C@@H]1CC2(CN1C(=O)CNC(=O)c1ccc3c(c1)Oc1ccccc1S3)OCCO2)c1cc(C(=N)N)cs1 [Compound 271, (S)—N—((R)-1-(4-carbamimidoylthiophen-2-yl)ethyl)-7-((phenoxathiine-3-carbonyl)glycyl)-1,4-dioxa-7-azaspiro[4.4]nonane-8-carboxamide] | < 100 nM
CS(=O)(=O)c1ccc(-c2ccc(C(=O)NCC(=O)N3CC4(C[C@H]3C(=O)NCc3cc(C(=N)N)cs3)OCCO4)cc2)c(F)c1 [Compound 215, (S)—N-((4-carbamimidoylthiophen-2-yl)methyl)-7-((2′-fluoro-4′-(methylsulfonyl)-[1,1′-biphenyl]-4-carbonyl)glycyl)-1,4-dioxa-7-azaspiro[4.4]nonane-8-carboxamide] | < 100 nM
Cc1ccc(-c2ccc(C(=O)NCC(=O)N3CC4(C[C@H]3C(=O)NCc3cc(C(=N)N)cs3)OCCO4)cc2)cc1F [Compound 210, (S)—N-((4-carbamimidoylthiophen-2-yl)methyl)-7-((3′-fluoro-4′-methyl-[1,1′-biphenyl]-4-carbonyl)glycyl)-1,4-dioxa-7-azaspiro[4.4]nonane-8-carboxamide] | < 100 nM
NCC(=O)Nc1csc(CNC(=O)[C@@H]2CC3(CN2C(=O)CNC(=O)c2ccc(Oc4ccc(F)cc4)cc2)OCCO3)c1 [Compound 316, (S)-N-((4-(2-aminoacetamido)thiophen-2-yl)methyl)-7-((4-(4-fluorophenoxy)benzoyl)glycyl)-1,4-dioxa-7-azaspiro[4.4]nonane-8-carboxamide] | 100 to 1000 nM
C[C@@H](NC(=O)[C@@H]1C[C@](F)(CF)CN1C(=O)CNC(=O)c1ccc2c(c1)sc1ccccc12)c1cc(C(=N)N)cs1 [Compound 349, (2S,4R)—N—((R)-1-(4-carbamimidoylthiophen-2-yl)ethyl)-1-((dibenzo[b,d]thiophene-3-carbonyl)glycyl)-4-fluoro-4-(fluoromethyl)pyrrolidine-2-carboxamide] | < 100 nM
CO[C@@H]1C[C@@H](C(=O)N[C@H](CO)c2cc(C(=N)N)cs2)N(C(=O)CNC(=O)c2ccc3c(c2)-c2ccccc2C3(C)C)C1 [Compound 395, (2S,4R)—N—((R)-1-(4-carbamimidoylthiophen-2-yl)-2-hydroxyethyl)-1-((9,9-dimethyl-9H-fluorene-3-carbonyl)glycyl)-4-methoxypyrrolidine-2-carboxamide] | < 100 nM
N=C(N)c1csc(C(CN)NC(=O)[C@@H]2C[C@@H](OC(F)F)CN2C(=O)CNC(=O)c2ccc(Oc3ccccc3)cc2)c1 (some centres unmarked) [Compound 314] | > 1000 nM
O=C(NCC(=O)N1CC2(C[C@H]1C(=O)NCc1cc(Nc3ncc[nH]3)cs1)OCCO2)c1ccc(Oc2ccc(F)cc2)cc1 [Compound 283, (S)-N-((4-((1H-imidazol-2-yl)amino)thiophen-2-yl)methyl)-7-((4-(4-fluorophenoxy)benzoyl)glycyl)-1,4-dioxa-7-azaspiro[4.4]nonane-8-carboxamide] | > 1000 nM
